Experimental data: US20110269799A1 (priority 2008, published 2011)
“And” between values parts separate entries of the source, which are not always exact repeats. Equal entries are not always repeated. Where two headings read alike, the source gives them in different places. Marks after values point to notes of the source that are not given here. Blank lines part the entries; values can stand above or below the molecule they belong to.

Columns and labels:
[1] = system: patients with atrial fibrillation
[2] = system: patients with chronic atrial fibrillation; test: PETRO phase 2 12-week dose finding study, dabigatran etexilate alone or with aspirin vs. warfarin; type: in vivo, human
Description: Primary endpoints were bleeding events and changes in D-dimer. […] Minor bleeding was dose related.

[3] = system: cytochrome P-450 drug metabolizing enzymes; test: Cytochrome P-450 metabolism, induction and inhibition; type: in vitro ADME
[4] = system: patients with atrial fibrillation at risk of stroke
Description: Median follow-up was 2.0 years and the primary outcome was stroke or systemic embolism.
Patients were recruited from 951 clinical centers in 44 countries. In brief, patients were eligible if they had atrial fibrillation documented on electrocardiogram at screening or within 6 months; and at least one of the following: prior stroke or transient ischemic attack; left ventricular ejection fraction less than 40%; New York Heart Association heart failure symptoms of Class 2 or greater within 6 months; age at least 75 years; or age at least 65 years with diabetes mellitus, hypertension or coronary artery disease.
The time in therapeutic range was calculated by the method of Rosendaal (Rosendaal F R, et al., A method to determine the optimal intensity of oral anticoagulant therapy, Thromb Haemost, 1993, 69:236-239), excluding INRs from the first week and after discontinuations. […] Concomitant use of aspirin (less than 100 mg/day) or other antiplatelet agents was allowed.
Liver function testing was performed monthly during the first year of follow-up.
The primary study outcome was stroke or systemic embolism. The primary safety outcome was major hemorrhage. Secondary outcomes were stroke, systemic embolism and death. Other outcomes were myocardial infarction, pulmonary embolism, transient ischemic attacks, and hospitalizations. The primary net benefit-risk outcome was the composite of stroke, systemic embolism, pulmonary embolism, myocardial infarction, death or major hemorrhage. Stroke was defined as sudden onset of focal neurological deficit consistent with the territory of a major cerebral artery and categorized as ischemic, hemorrhagic or unspecified. Hemorrhagic transformation of ischemic stroke was not considered as hemorrhagic stroke. Intracranial hemorrhage included hemorrhagic stroke and sub-dural or sub-arachnoid hemorrhage. Systemic embolism was an acute vascular occlusion of an extremity or organ documented by imaging, surgery or autopsy. Major bleeding was defined as a reduction in hemoglobin level of at least […] or transfusion of at least 2 units of blood or symptomatic bleeding in a critical area or organ. Life-threatening bleeding was a subset of major bleeding that included fatal bleeding, symptomatic intracranial bleeding, bleeding with hemoglobin decrease of more than […] or requiring transfusion of more than 4 units of blood or requiring inotropic agents or necessitating surgery. All other bleeding was considered minor.
All primary and secondary outcome events were blindly and doubly adjudicated. An international team of adjudicators reviewed documents in local languages after blinding; or documents were translated by a independent group and blinded centrally. All transient ischemic attacks were reviewed to ensure that strokes had not been missed. To detect possible unreported events, symptom questionnaires were regularly administered to patients, and adverse events and hospitalization reports were scrutinized for unreported primary or secondary outcomes.
If maximum of the two p-values was greater than 0.025, the minimum of the two p-values must be less than 0.0125, one-sided, to claim statistical significance. All analyses were based on intention-to-treat.

[5] = individual patients with LFT abnormalities, one patient (age, sex) per table line

Major Bleeds, of these without aspirin, rate ([1]; 150 mg b.i.d.): 3.2 % per year
Major Bleeds, rate ([1]; 150 mg b.i.d.): 4.2 % per year
Major Bleeds, with aspirin, rate ([1]; 150 mg b.i.d.): 8.7 % per year
Major Bleeds, of these without aspirin, rate ([1]; 150 mg q.d.): 6.5 % per year
Major Bleeds, rate ([1]; 150 mg q.d.): 5.1 % per year
Bleeding events ([1]; 300 mg b.i.d.): more than 12 per 100 years
Major Bleeds, of these without aspirin, rate ([1]; 300 mg b.i.d.): 6.3 % per year
Major Bleeds, rate ([1]; 300 mg b.i.d.): 12.2 % per year
Major Bleeds, with aspirin, rate ([1]; 300 mg b.i.d.): 32.7 % per year
Major Bleeds, of these without aspirin, rate ([1]; 300 mg q.d.): 2.1 % per year
Major Bleeds, rate ([1]; 300 mg q.d.): 2.5 % per year
Major Bleeds, with aspirin, rate ([1]; 300 mg q.d.): 3.6 % per year
Major bleeding events (per 100 patient years) ([1]; PETRO-Ex, 150 mg b.i.d., without concomitant aspirin): 3.2%*
LFT abnormalities > 3 xULN (per 100 patient years) ([1]; PETRO-Ex, all doses): 1.7%
Major Bleeds, of these without aspirin, rate ([1]; Total, all doses): 3.2 % per year
Major Bleeds, rate ([1]; Total, all doses): 4.2 % per year
Major Bleeds, with aspirin, rate ([1]; Total, all doses): 8.5 % per year
Major bleeding events ([2]; 300 mg b.i.d. plus ASA groups, 12 weeks): 6%
Minor bleeding ([2]; 50, 150, 300 mg b.i.d.): dose related
Elevated transaminases >3x upper limit of normal (ULN) ([2]; all dabigatran etexilate-treated patients (432)): 0.9%
Compound: CCCCCCOC(=O)NC(=N)c1ccc(NCc2nc3cc(C(=O)N(CCC(=O)OCC)c4ccccn4)ccc3n2C)cc1 [Dabigatran etexilate, 1-methyl-2-[N-[4-(N-n-hexyloxycarbonylamidino)phenyl]aminomethyl]benzimidazol-5-ylcarboxylic acid-N-(2-pyridyl)-N-(2-ethoxycarbonylethyl)amides]
Adverse Events leading to premature discontinuation, rate ([1]; 50 mg b.i.d.): 21.3 % per year
Thromboembolic events ([1]; 50 mg b.i.d.): more than 12 events per 100 years
ALT or AST > 2xULN, rate ([1]; 150 mg b.i.d.): 3.1 % per year
ALT or AST > 3xULN and Bili > 2xULN within 30 days, rate ([1]; 150 mg b.i.d.): 0.4 % per year
ALT or AST > 3xULN, rate ([1]; 150 mg b.i.d.): 1.9 % per year
ALT or AST > 5xULN, rate ([1]; 150 mg b.i.d.): 1.0 % per year
Adverse Events leading to premature discontinuation, rate ([1]; 150 mg b.i.d.): 9.8 % per year
Stroke and Systemic Thromboembolism, rate ([1]; 150 mg b.i.d.): 1.0 % per year
ALT or AST > 2xULN, rate ([1]; 150 mg q.d.): 3.4 % per year
Adverse Events leading to premature discontinuation, rate ([1]; 150 mg q.d.): 13.7 % per year
Thromboembolic events ([1]; 150 mg q.d., per 100 years): about 5 events
ALT or AST > 2xULN, rate ([1]; 300 mg b.i.d.): 4.9 % per year
ALT or AST > 3xULN, rate ([1]; 300 mg b.i.d.): 2.4 % per year
ALT or AST > 5xULN, rate ([1]; 300 mg b.i.d.): 1.2 % per year
Adverse Events leading to premature discontinuation, rate ([1]; 300 mg b.i.d.): 25.6 % per year
Thromboembolic events ([1]; 300 mg b.i.d.): about 1 event per 100 years
ALT or AST > 2xULN, rate ([1]; 300 mg q.d.): 1.5 % per year
ALT or AST > 3xULN and Bili > 2xULN within 30 days, rate ([1]; 300 mg q.d.): 0.5 % per year
ALT or AST > 3xULN, rate ([1]; 300 mg q.d.): 1.5 % per year
ALT or AST > 5xULN, rate ([1]; 300 mg q.d.): 1.5 % per year
Adverse Events leading to premature discontinuation, rate ([1]; 300 mg q.d.): 9.6 % per year
Thromboembolic events ([1]; 300 mg q.d., per 100 years): more than 2 events
ALT or AST > 2xULN, rate ([1]; Total, all doses): 2.9 % per year
ALT or AST > 3xULN and Bili > 2xULN within 30 days, rate ([1]; Total, all doses): 0.4 % per year
ALT or AST > 3xULN, rate ([1]; Total, all doses): 1.7 % per year
ALT or AST > 5xULN, rate ([1]; Total, all doses): 1.1 % per year
Adverse Events leading to premature discontinuation, rate ([1]; Total, all doses): 11.5 % per year
Metabolism by, induction or inhibition of cytochrome P-450 enzymes [3]: not metabolized by and does not induce or inhibit cytochrome P-450 drug metabolizing enzymes

Compound: [H]/N=C(/N)c1ccc(NCc2nc3cc(C(=O)N(CCC(=O)O)c4ccccn4)ccc3n2C)cc1 [Dabigatran]
Fatal bleeding events, rate ([1]; all doses): 0.5 % per year
LFT abnormality ALT/ULN [1, 5]: >5x x ULN (4×) and >5x^# x ULN (2×) and >3x x ULN (5×) and >3x^# x ULN
LFT abnormality AST/ULN [1, 5]: >5x^# x ULN (4×) and >5x x ULN (4×) and >3x x ULN (5×)
Change in D-dimer levels ([2]; 12 weeks): comparable to warfarin
Rate of hemorrhagic stroke ([4]; 110 mg b.i.d.): 0.12 % per year
Stroke, Ischemic or Unspecified, Rate ([4]; 110 mg b.i.d.): 1.35 /100 Person Years
Stroke, systemic embolism, pulmonary embolism, myocardial infarction death or major bleed (net benefit), Rate ([4]; 110 mg b.i.d.): 7.37 /100 Person Years
Extracranial Bleeding, RR ([4]; 110 mg vs. Warfarin): 0.93
First Hospitalization, RR ([4]; 110 mg vs. Warfarin): 0.92
Non-disabling Stroke Modified Rankin 0-2, RR ([4]; 110 mg vs. Warfarin): 0.87
Stroke or systemic embolism, RR ([4]; 110 mg vs. Warfarin): 0.91
Stroke, Hemorrhagic, RR ([4]; 110 mg vs. Warfarin): 0.31
Stroke, RR ([4]; 110 mg vs. Warfarin): 0.92
Stroke, systemic embolism, pulmonary embolism, myocardial infarction death or major bleed (net benefit), RR ([4]; 110 mg vs. Warfarin): 0.92
Rate of hemorrhagic stroke ([4]; 150 mg b.i.d.): 0.10 % per year
Stroke, systemic embolism, pulmonary embolism, myocardial infarction death or major bleed (net benefit), Rate ([4]; 150 mg b.i.d.): 7.22 /100 Person Years
Stroke, Ischemic or Unspecified, RR ([4]; 150 mg vs. 110 mg): 0.68
Stroke, RR ([4]; 150 mg vs. 110 mg): 0.70
Stroke, systemic embolism, pulmonary embolism, myocardial infarction death or major bleed (net benefit), RR ([4]; 150 mg vs. 110 mg): 0.98
First Hospitalization, RR ([4]; 150 mg vs. Warfarin): 0.97
Major Bleeding, Other Major, RR ([4]; 150 mg vs. Warfarin): 1.07
Non-disabling Stroke Modified Rankin 0-2, RR ([4]; 150 mg vs. Warfarin): 0.62
Stroke or systemic embolism, RR ([4]; 150 mg vs. Warfarin): 0.66
Stroke, Hemorrhagic, RR ([4]; 150 mg vs. Warfarin): 0.26
Stroke, Ischemic or Unspecified, RR ([4]; 150 mg vs. Warfarin): 0.76
Stroke, RR ([4]; 150 mg vs. Warfarin): 0.64
Stroke, systemic embolism, pulmonary embolism, myocardial infarction death or major bleed (net benefit), RR ([4]; 150 mg vs. Warfarin): 0.90
Hepatotoxicity in serial measurement of liver function tests ([4]; in vivo): no evidence of hepatotoxicity
